Test results as given in DBAASP.
≈ marks a conversion by molar mass, not a printed value. Each block holds one compound with its values, some of them ahead of it.

Experiments:
Experiment in all cases: ≥ marks a high value that may be exact or a test limit, other limits are often not marked, values filed in µg/mL are converted to µM
[1] = system: Pseudomonas aeruginosa Ps4
Escherichia coli 078 = system: Escherichia coli 078
[2] = system: Escherichia coli ATCC 25922
Escherichia coli UB1005 = system: Escherichia coli UB1005
[3] = system: Lacticaseibacillus rhamnosus 7469
[4] = system: Pseudomonas aeruginosa ATCC 27853
[5] = system: Salmonella enterica subsp. enterica serovar Pullorum ATCC 7913
[6] = system: Salmonella enterica subsp. enterica serovar Typhimurium ATCC 14028
[7] = system: Salmonella enterica subsp. enterica serovar Typhimurium C77-31
[8] = system: Staphylococcus aureus ATCC 25923
[9] = system: Staphylococcus aureus ATCC 29213
[10] = system: Staphylococcus epidermidis ATCC 12228
[11] = system: Streptococcus agalactiae CICC 10465
Streptococcus agalactiae = system: Streptococcus agalactiae
[12] = system: Streptococcus thermophilus YM-C
Candida albicans = system: Candida albicans
[13] = system: Enterococcus faecalis ATCC 29212
[14] = system: Pseudomonas aeruginosa 253
[15] = system: Pseudomonas aeruginosa 910
[16] = system: Pseudomonas aeruginosa 919
[17] = system: Pseudomonas aeruginosa H103
[18] = system: Pseudomonas aeruginosa PAO1
[19] = system: Salmonella enterica serovar Typhimurium
[20] = system: Staphylococcus epidermidis
Bacillus subtilis C971 = system: Bacillus subtilis C971
[21] = system: Corynebacterium xerosis C875
[22] = system: Enterococcus faecalis C625
Escherichia coli DC2 = system: Escherichia coli DC2
[23] = system: Pseudomonas aeruginosa H187
[24] = system: Pseudomonas aeruginosa H188
[25] = system: Salmonella typhimurium C587
[26] = system: Salmonella typhimurium C610
[27] = system: Staphylococcus aureus SAP 0017
[28] = system: Staphylococcus epidermidis C621
[29] = system: Escherichia coli ATCC 11775
[30] = system: Escherichia coli ATCC 35218
[31] = system: Escherichia coli ATCC 43827
Escherichia coli ESBL 4 = system: Escherichia coli ESBL 4
Escherichia coli ESBL = system: Escherichia coli ESBL

MIC (Escherichia coli 078): 8 µM (≈ 15.7 µg/mL)
MIC [2]: 4 µM (≈ 7.85 µg/mL)
MIC (Escherichia coli UB1005): 4 µM (≈ 7.85 µg/mL)
MIC [3]: ≥ 64 µM
MIC [4]: 4 µM (≈ 7.85 µg/mL)
MIC [5]: 8 µM (≈ 15.7 µg/mL)
MIC [6]: 8 µM (≈ 15.7 µg/mL)
MIC [7]: 8 µM (≈ 15.7 µg/mL)
MIC [8]: 4 µM (≈ 7.85 µg/mL)
MIC [9]: 4 µM (≈ 7.85 µg/mL)
MIC [10]: 8 µM (≈ 15.7 µg/mL)
MIC [11]: 2 µM (≈ 3.93 µg/mL)
MIC (Streptococcus agalactiae): 4 µM (≈ 7.85 µg/mL)
MIC [12]: ≥ 64 µM
Structure (SMILES): CC[C@H](C)[C@H](NC(=O)[C@H](CC(C)C)NC(=O)[C@@H](NC(=O)[C@@H](N)CC(=O)O)[C@@H](C)CC)C(=O)N[C@H](C(=O)N[C@H](C(=O)NCC(=O)NCC(=O)N[C@@H](CCCCN)C(=O)N[C@@H](CCCN=C(N)N)C(=O)N[C@@H](CCCN=C(N)N)C(=O)N[C@@H](CCCCN)C(=O)N[C@@H](CCCCN)C(=O)N[C@@H](CCCN=C(N)N)C(=O)N[C@@H](CCCN=C(N)N)C(=O)N[C@@H](CCCN=C(N)N)C(N)=O)C(C)C)[C@@H](C)CC [DILIIVGGKRRKKRRR]

MIC (Candida albicans): 5.46 µM (≈ 7.99 µg/mL)
MIC [13]: 10.9 µM (≈ 16 µg/mL)
MIC (Escherichia coli UB1005): 2.73 µM (≈ 4 µg/mL)
MIC [14]: ≥ 32 µM
MIC [15]: ≥ 32 µM
MIC [16]: 16 µM (≈ 23.4 µg/mL)
MIC [17]: 5.46 µM (≈ 7.99 µg/mL)
MIC [18]: 32 µM (≈ 46.8 µg/mL)
MIC [19]: 5.46 µM (≈ 7.99 µg/mL)
MIC [8]: 10.9 µM (≈ 16 µg/mL)
MIC [20]: 1.37 µM (≈ 2 µg/mL)
Structure (SMILES): CC[C@H](C)[C@H](NC(=O)[C@H](CCCN=C(N)N)NC(=O)[C@H](C)NC(=O)[C@H](CCCN=C(N)N)NC(=O)[C@@H](N)CCCN=C(N)N)C(=O)N[C@H](C(=O)N[C@H](C(=O)N[C@H](C(=O)N[C@@H](CCCN=C(N)N)C(=O)N[C@H](C(=O)N[C@@H](C)C(=O)N[C@@H](CCCN=C(N)N)C(N)=O)C(C)C)[C@@H](C)CC)C(C)C)C(C)C [RRARIVVIRVAR]

MIC (Escherichia coli 078): ≥ 64 µM
MIC [2]: > 64 µM
MIC (Escherichia coli UB1005): ≥ 64 µM
MIC [3]: ≥ 64 µM
MIC [4]: > 64 µM
MIC [5]: ≥ 64 µM
MIC [6]: > 64 µM
MIC [7]: ≥ 64 µM
MIC [8]: > 64 µM
MIC [9]: > 64 µM
MIC [10]: > 64 µM
MIC [11]: ≥ 64 µM
MIC (Streptococcus agalactiae): ≥ 64 µM
MIC [12]: ≥ 64 µM
Structure (SMILES): CC[C@H](C)[C@H](NC(=O)[C@H](CC(C)C)NC(=O)[C@@H](NC(=O)[C@@H](N)CC(=O)O)[C@@H](C)CC)C(=O)N[C@H](C(=O)N[C@H](C(=O)NCC(=O)NCC(=O)N[C@@H](CCCN=C(N)N)C(=O)N[C@@H](CCCN=C(N)N)C(N)=O)C(C)C)[C@@H](C)CC [DILIIVGGRR]

The next lines start with the compound.

Structure (SMILES): CC(C)C[C@H](NC(=O)[C@H](CCCN=C(N)N)NC(=O)[C@H](CC(C)C)NC(=O)[C@H](CC(N)=O)NC(=O)[C@H](CCCN=C(N)N)NC(=O)[C@H](CCC(N)=O)NC(=O)[C@H](Cc1c[nH]c2ccccc12)NC(=O)[C@@H](N)Cc1ccccc1)C(=O)N[C@@H](CCCN=C(N)N)C(=O)N[C@@H](CCCN=C(N)N)C(N)=O [FWQRNLRLRR]
MIC [1]: ≥ 173 µM

Structure (SMILES): CC[C@H](C)[C@H](NC(=O)[C@H](CC(N)=O)NC(=O)[C@H](CCCN=C(N)N)NC(=O)[C@H](Cc1c[nH]c2ccccc12)NC(=O)[C@@H](N)Cc1ccccc1)C(=O)N[C@@H](CCCN=C(N)N)C(=O)N[C@@H](CCCCN)C(=O)N[C@H](C(=O)N[C@@H](CCCN=C(N)N)C(N)=O)C(C)C [FWRNIRKVR]
MIC [1]: ≥ 196 µM

Structure (SMILES): CC[C@H](C)[C@H](NC(=O)[C@H](C)NC(=O)[C@H](CCCCN)NC(=O)[C@H](CC(C)C)NC(=O)[C@H](C)NC(=O)[C@@H](NC(=O)[C@H](Cc1cnc[nH]1)NC(=O)[C@H](CC(C)C)NC(=O)[C@@H](NC(=O)[C@@H](NC(=O)[C@H](CCCCN)NC(=O)[C@@H](NC(=O)[C@H](C)NC(=O)[C@H](CCCCN)NC(=O)[C@H](CCCCN)NC(=O)[C@H](Cc1ccccc1)NC(=O)[C@@H](NC(=O)[C@H](CCCCN)NC(=O)[C@H](CC(C)C)NC(=O)[C@H](Cc1ccccc1)NC(=O)[C@H](CO)NC(=O)[C@H](CCCCN)NC(=O)[C@H](Cc1c[nH]c2ccccc12)NC(=O)[C@H](CCCCN)NC(C)=O)[C@@H](C)O)C(C)C)[C@@H](C)O)C(C)C)[C@@H](C)O)C(=O)N[C@@H](CO)C(=O)N[C@@H](CO)C(N)=O [KWKSFLKTFKKAVKTVLHTALKAISS]
MIC (Bacillus subtilis C971): 1.08 µM (≈ 3.24 µg/mL)
MIC [21]: 1.35 µM (≈ 4.06 µg/mL)
MIC [22]: 10.8 µM (≈ 32.4 µg/mL)
MIC (Escherichia coli DC2): 1.35 µM (≈ 4.06 µg/mL)
MIC (Escherichia coli UB1005): 3.41 µM (≈ 10.2 µg/mL)
MIC [23]: 8.58 µM (≈ 25.8 µg/mL)
MIC [24]: 10.8 µM (≈ 32.4 µg/mL)
MIC [25]: 8.58 µM (≈ 25.8 µg/mL)
MIC [26]: 2.7 µM (≈ 8.11 µg/mL)
MIC [8]: 10.8 µM (≈ 32.4 µg/mL)
MIC [27]: 5.4 µM (≈ 16.2 µg/mL)
MIC [28]: 2.16 µM (≈ 6.49 µg/mL)

Structure (SMILES): CC[C@H](C)[C@H](NC(=O)[C@H](Cc1ccc(O)cc1)NC(=O)[C@H](CCC(N)=O)NC(=O)[C@H](CC(C)C)NC(=O)[C@H](C)NC(=O)[C@H](CCCCN)NC(=O)[C@H](CCCCN)NC(=O)[C@H](CCSC)NC(=O)[C@@H](N)CCCCN)C(=O)N[C@@H](CCCCN)C(=O)N[C@@H](CC(C)C)C(=O)N[C@@H](CC(C)C)C(=O)N[C@@H](CCCCN)C(=O)N[C@@H](CCC(=O)O)C(N)=O [KMKKALQYIKLLKE]
MIC [29]: ≥ 100 µM
MIC [2]: 100 µM (≈ 173 µg/mL)
MIC [30]: 25 µM (≈ 43.3 µg/mL)
MIC [31]: 25 µM (≈ 43.3 µg/mL)
MIC (Escherichia coli ESBL 4): ≥ 100 µM
MIC (Escherichia coli ESBL): ≥ 100 µM
MIC [4]: > 100 µM

Structure (SMILES): CC[C@H](C)[C@H](NC(=O)[C@@H](N)Cc1ccccc1)C(=O)N[C@@H](CCCCN)C(=O)N[C@@H](Cc1c[nH]c2ccccc12)C(=O)N[C@@H](CCCN=C(N)N)C(=O)N[C@@H](CO)C(=O)N[C@@H](CCCN=C(N)N)C(=O)N[C@@H](Cc1c[nH]c2ccccc12)C(=O)N[C@@H](Cc1c[nH]c2ccccc12)C(=O)N[C@@H](CCCCN)C(=O)N[C@@H](CCCCN)C(=O)N[C@@H](CCCN=C(N)N)C(=O)N[C@H](C(N)=O)[C@@H](C)O [FIKWRSRWWKKRT]
MIC [14]: 16 µM (≈ 30 µg/mL)
MIC [15]: 8 µM (≈ 15 µg/mL)
MIC [16]: ≥ 32 µM
MIC [18]: 4 µM (≈ 7.51 µg/mL)
